Laboratory results published in PubChem BioAssay (NCI).
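Dose response: 5 concentrations. Exposure: 48 h. Format: 96-well plates. Endpoint: linear interpolation; highest concentration if not reached. Abbreviation: GI50, concentration required for 50% inhibition of growth. The concentration for full growth arrest is given as TGI.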

Assays:
Experiment in all cases: NCI tumour cell line growth inhibition, 48 h
MCF7 breast = system: MCF7 breast
EKVX NSCLC = system: EKVX NSCLC
786-0 renal = system: 786-0 renal
OVCAR-8 ovarian = system: OVCAR-8 ovarian
SW-620 colon = system: SW-620 colon
NCI-H226 lung = system: NCI-H226 lung
HCT-116 colon = system: HCT-116 colon
MDA-MB-231 breast = system: MDA-MB-231 breast
OVCAR-4 ovarian = system: OVCAR-4 ovarian
HOP-92 NSCLC = system: HOP-92 NSCLC
HT29 colon = system: HT29 colon
OVCAR-3 ovarian = system: OVCAR-3 ovarian
LOX IMVI melanoma = system: LOX IMVI melanoma
CAKI-1 renal = system: CAKI-1 renal
M14 melanoma = system: M14 melanoma
MDA-MB-435 = system: MDA-MB-435
UO-31 renal = system: UO-31 renal
ACHN renal = system: ACHN renal
MALME-3M melanoma = system: MALME-3M melanoma
NCI-H23 lung = system: NCI-H23 lung
SK-MEL-28 melanoma = system: SK-MEL-28 melanoma
SNB-75 CNS = system: SNB-75 CNS
UACC-62 melanoma = system: UACC-62 melanoma
SK-MEL-5 melanoma = system: SK-MEL-5 melanoma
HS 578T breast = system: HS 578T breast
SN12C renal = system: SN12C renal
U251 CNS = system: U251 CNS
SNB-19 CNS = system: SNB-19 CNS
PC-3 prostate = system: PC-3 prostate
TK-10 renal = system: TK-10 renal
A549 NSCLC = system: A549 NSCLC
K-562 leukemia = system: K-562 leukemia
UACC-257 melanoma = system: UACC-257 melanoma
NCI-H460 lung = system: NCI-H460 lung
KM12 colon = system: KM12 colon
DU-145 prostate = system: DU-145 prostate
MOLT-4 leukemia = system: MOLT-4 leukemia
HL-60(TB) leukemia = system: HL-60(TB) leukemia
SF-295 CNS = system: SF-295 CNS
NCI/ADR-RES ovarian = system: NCI/ADR-RES ovarian
A498 renal = system: A498 renal
COLO 205 colon = system: COLO 205 colon
OVCAR-5 ovarian = system: OVCAR-5 ovarian
T-47D breast = system: T-47D breast
RXF 393 renal = system: RXF 393 renal
SK-OV-3 ovarian = system: SK-OV-3 ovarian
SF-539 CNS = system: SF-539 CNS
RPMI-8226 leukemia = system: RPMI-8226 leukemia
HCT-15 colon = system: HCT-15 colon
SK-MEL-2 melanoma = system: SK-MEL-2 melanoma
IGROV1 ovarian = system: IGROV1 ovarian
HOP-62 NSCLC = system: HOP-62 NSCLC
BT-549 breast = system: BT-549 breast
CCRF-CEM leukemia = system: CCRF-CEM leukemia
SF-268 CNS = system: SF-268 CNS

Question: With NC(CSSCC(N)C(=O)O)C(=O)O (stereo not given) as the compound, how does the GI50 (MCF7 breast) read?
Answer: > 100 µM

Question: And the TGI (MCF7 breast)?
Answer: > 100 µM

Question: And the GI50 (EKVX NSCLC)?
Answer: > 100 µM

Question: And the TGI (EKVX NSCLC)?
Answer: > 100 µM

Question: What about the GI50 (786-0 renal) of the same compound?
Answer: > 100 µM

Question: What about the TGI (786-0 renal) of the same compound?
Answer: > 100 µM

Question: What about the GI50 (OVCAR-8 ovarian) of the same compound?
Answer: > 100 µM

Question: What about the TGI (OVCAR-8 ovarian) of the same compound?
Answer: > 100 µM

Question: What about the GI50 (SW-620 colon) of the same compound?
Answer: > 100 µM

Question: What about the TGI (SW-620 colon) of the same compound?
Answer: > 100 µM

Question: And the GI50 (NCI-H226 lung)?
Answer: > 100 µM

Question: And the TGI (NCI-H226 lung)?
Answer: > 100 µM

Question: What about the GI50 (HCT-116 colon) of the same compound?
Answer: > 100 µM

Question: And the TGI (HCT-116 colon)?
Answer: > 100 µM

Question: And the GI50 (MDA-MB-231 breast)?
Answer: > 100 µM

Question: What about the TGI (MDA-MB-231 breast) of the same compound?
Answer: > 100 µM

Question: And the GI50 (OVCAR-4 ovarian)?
Answer: > 100 µM

Question: What about the TGI (OVCAR-4 ovarian) of the same compound?
Answer: > 100 µM

Question: What about the GI50 (HOP-92 NSCLC) of the same compound?
Answer: > 100 µM

Question: And the TGI (HOP-92 NSCLC)?
Answer: > 100 µM

Question: And the GI50 (HT29 colon)?
Answer: > 100 µM

Question: And the TGI (HT29 colon)?
Answer: > 100 µM

Question: What about the GI50 (OVCAR-3 ovarian) of the same compound?
Answer: > 100 µM

Question: And the TGI (OVCAR-3 ovarian)?
Answer: > 100 µM

Question: And the GI50 (LOX IMVI melanoma)?
Answer: > 100 µM

Question: And the TGI (LOX IMVI melanoma)?
Answer: > 100 µM

Question: And the GI50 (CAKI-1 renal)?
Answer: > 100 µM

Question: And the TGI (CAKI-1 renal)?
Answer: > 100 µM

Question: And the GI50 (M14 melanoma)?
Answer: > 100 µM

Question: And the TGI (M14 melanoma)?
Answer: > 100 µM

Question: And the GI50 (MDA-MB-435)?
Answer: > 100 µM

Question: What about the TGI (MDA-MB-435) of the same compound?
Answer: > 100 µM

Question: What about the GI50 (UO-31 renal) of the same compound?
Answer: > 100 µM

Question: And the TGI (UO-31 renal)?
Answer: > 100 µM

Question: And the GI50 (ACHN renal)?
Answer: > 100 µM

Question: What about the TGI (ACHN renal) of the same compound?
Answer: > 100 µM

Question: And the GI50 (MALME-3M melanoma)?
Answer: > 100 µM

Question: And the TGI (MALME-3M melanoma)?
Answer: > 100 µM

Question: What about the GI50 (NCI-H23 lung) of the same compound?
Answer: > 100 µM

Question: What about the TGI (NCI-H23 lung) of the same compound?
Answer: > 100 µM

Question: And the GI50 (SK-MEL-28 melanoma)?
Answer: > 100 µM

Question: What about the TGI (SK-MEL-28 melanoma) of the same compound?
Answer: > 100 µM

Question: And the GI50 (SNB-75 CNS)?
Answer: > 100 µM

Question: And the TGI (SNB-75 CNS)?
Answer: > 100 µM

Question: And the GI50 (UACC-62 melanoma)?
Answer: > 100 µM

Question: And the TGI (UACC-62 melanoma)?
Answer: > 100 µM

Question: And the GI50 (SK-MEL-5 melanoma)?
Answer: > 100 µM

Question: And the TGI (SK-MEL-5 melanoma)?
Answer: > 100 µM

Question: What about the GI50 (HS 578T breast) of the same compound?
Answer: > 100 µM

Question: What about the TGI (HS 578T breast) of the same compound?
Answer: > 100 µM

Question: And the GI50 (SN12C renal)?
Answer: > 100 µM

Question: What about the TGI (SN12C renal) of the same compound?
Answer: > 100 µM

Question: What about the GI50 (U251 CNS) of the same compound?
Answer: > 100 µM

Question: What about the TGI (U251 CNS) of the same compound?
Answer: > 100 µM

Question: And the GI50 (SNB-19 CNS)?
Answer: > 100 µM

Question: What about the TGI (SNB-19 CNS) of the same compound?
Answer: > 100 µM

Question: What about the GI50 (PC-3 prostate) of the same compound?
Answer: > 100 µM

Question: What about the TGI (PC-3 prostate) of the same compound?
Answer: > 100 µM

Question: And the GI50 (TK-10 renal)?
Answer: > 100 µM

Question: What about the TGI (TK-10 renal) of the same compound?
Answer: > 100 µM

Question: What about the GI50 (A549 NSCLC) of the same compound?
Answer: > 100 µM

Question: And the TGI (A549 NSCLC)?
Answer: > 100 µM

Question: What about the GI50 (K-562 leukemia) of the same compound?
Answer: > 100 µM

Question: And the TGI (K-562 leukemia)?
Answer: > 100 µM

Question: What about the GI50 (UACC-257 melanoma) of the same compound?
Answer: > 100 µM

Question: What about the TGI (UACC-257 melanoma) of the same compound?
Answer: > 100 µM

Question: What about the GI50 (NCI-H460 lung) of the same compound?
Answer: > 100 µM

Question: And the TGI (NCI-H460 lung)?
Answer: > 100 µM

Question: And the GI50 (KM12 colon)?
Answer: > 100 µM

Question: What about the TGI (KM12 colon) of the same compound?
Answer: > 100 µM

Question: And the GI50 (DU-145 prostate)?
Answer: > 100 µM

Question: And the TGI (DU-145 prostate)?
Answer: > 100 µM

Question: And the GI50 (MOLT-4 leukemia)?
Answer: > 100 µM

Question: What about the TGI (MOLT-4 leukemia) of the same compound?
Answer: > 100 µM

Question: What about the GI50 (HL-60(TB) leukemia) of the same compound?
Answer: > 100 µM

Question: And the TGI (HL-60(TB) leukemia)?
Answer: > 100 µM

Question: What about the GI50 (SF-295 CNS) of the same compound?
Answer: > 100 µM

Question: And the TGI (SF-295 CNS)?
Answer: > 100 µM

Question: And the GI50 (NCI/ADR-RES ovarian)?
Answer: > 100 µM

Question: And the TGI (NCI/ADR-RES ovarian)?
Answer: > 100 µM

Question: What about the GI50 (A498 renal) of the same compound?
Answer: > 100 µM

Question: And the TGI (A498 renal)?
Answer: > 100 µM

Question: What about the GI50 (COLO 205 colon) of the same compound?
Answer: > 100 µM

Question: And the TGI (COLO 205 colon)?
Answer: > 100 µM

Question: What about the GI50 (OVCAR-5 ovarian) of the same compound?
Answer: > 100 µM

Question: What about the TGI (OVCAR-5 ovarian) of the same compound?
Answer: > 100 µM

Question: And the GI50 (T-47D breast)?
Answer: > 100 µM

Question: And the TGI (T-47D breast)?
Answer: > 100 µM

Question: And the GI50 (RXF 393 renal)?
Answer: > 100 µM

Question: And the TGI (RXF 393 renal)?
Answer: > 100 µM

Question: And the GI50 (SK-OV-3 ovarian)?
Answer: > 100 µM

Question: And the TGI (SK-OV-3 ovarian)?
Answer: > 100 µM

Question: What about the GI50 (SF-539 CNS) of the same compound?
Answer: > 100 µM

Question: And the TGI (SF-539 CNS)?
Answer: > 100 µM

Question: What about the GI50 (RPMI-8226 leukemia) of the same compound?
Answer: > 100 µM

Question: What about the TGI (RPMI-8226 leukemia) of the same compound?
Answer: > 100 µM

Question: And the GI50 (HCT-15 colon)?
Answer: > 100 µM

Question: And the TGI (HCT-15 colon)?
Answer: > 100 µM

Question: And the GI50 (SK-MEL-2 melanoma)?
Answer: > 100 µM

Question: What about the TGI (SK-MEL-2 melanoma) of the same compound?
Answer: > 100 µM

Question: What about the GI50 (IGROV1 ovarian) of the same compound?
Answer: > 100 µM

Question: What about the TGI (IGROV1 ovarian) of the same compound?
Answer: > 100 µM

Question: What about the GI50 (HOP-62 NSCLC) of the same compound?
Answer: > 100 µM

Question: And the TGI (HOP-62 NSCLC)?
Answer: > 100 µM

Question: And the GI50 (BT-549 breast)?
Answer: > 100 µM

Question: What about the TGI (BT-549 breast) of the same compound?
Answer: > 100 µM

Question: What about the GI50 (CCRF-CEM leukemia) of the same compound?
Answer: > 100 µM

Question: What about the TGI (CCRF-CEM leukemia) of the same compound?
Answer: > 100 µM

Question: What about the GI50 (SF-268 CNS) of the same compound?
Answer: > 100 µM

Question: And the TGI (SF-268 CNS)?
Answer: > 100 µM
